Holding throughout (type): biochemical, human
For experiment [1], the system named is plasma samples. As to the kind of experiment: PT (HemosIL PT recombiplastin) clotting time. Conditions: for Clotting time with PT: Table 6, spiked plasma, mean. As for the experimental part: (§1) In order to address the above question, i.e. to determine the nature of an anticoagulant in a sample, a combination of several methods has to be performed, including PiCT® Method 1, PiCT® Method 4, aPTT (HemosIL™ aPTT SP), PT (HemosIL™ PT recombiplastin), and sometimes even a modified PiCT® Method 1 wherein polybrene has been added. In order to simulate this, plasma samples spiked with different levels of anticoagulants were analyzed using the ACL TOP® 500 analyzer.

Experiment [2] concerns plasma samples. Description: PiCT Method 1 with polybrene added, clotting time. Conditions: Table 6, spiked plasma, mean.
From the text: By the addition of polybrene a distinction can be done, which of the anticoagulants is really present in the sample: if after addition of polybrene the measured clotting times are again back to RR when using the PiCT® Method 1, the sample comprises heparins, such as e.g. UFH or LMWH. Alternatively, if the result is not going back to RR, the sample comprises low concentrations of dabigatran or hirudin. […] The particular clotting times measured for the different anticoagulants are shown in Table 6, which is an example of results obtained in spiked plasma samples.
as §1, with “analyzer. For each drug, a specific pattern was obtained, i.e. clotting times within the RR and clotting times above the RR, depending on the used testing method, which is unique at least for the class of anticoagulant or even for a specific anticoagulant.” for “analyzer.”

For another experiment, the system named is normal plasma pool (NPP). As to the kind of experiment: PiCT Method 3 clotting time on ACL TOP 500. Conditions: Table 8B (argatroban), PiCT Method 3, NPP spiked, mean n = 4. An excerpt: The 4 methods (see above) are in more detail described in the Examples. Specific pipetting schemes were designed using NPP spiked with incremental amounts of anticoagulants in order to achieve high reproducibility of the test system, which is required for drug identification including use in a POC system. […] […]-50/I-180/50-S). […] […]-65/I-180/35-S on the ACL TOP® 500 or […]-65/I-180/40-S on the STA Compact® or […]-65/[…]-40 on the BCS® XP. […] […]-70/I-180/40-S on the ACL TOP® 500 or STA Compact®, or […]-60/I-180/45-S on the BCS® XP.

For `CC1CNc2c(cccc2S(=O)(=O)N[C@@H](CCCNC(=N)N)C(=O)N2CC[C@@H](C)C[C@@H]2C(=O)O)C1` (some centres unmarked) [argatroban], the “Clotting time with PT” value in the experiment on plasma samples [1] (0.3 μg) was determined as 15.0 s; in the experiment with plasma samples [1] (1.5 μg), 31.2 s. In addition, the “Clotting time with PiCT ® Method 1 + polybrene” value worked out at 85.6 s in the experiment on plasma samples [2] (0.3 μg) and 126.4 s with plasma samples [2] (1.5 μg). Besides, the Clotting time worked out at 113 s with normal plasma pool (NPP) (0.2 μg/ml); 145 s in the experiment with normal plasma pool (NPP) (0.4 μg/ml); 162 s in the experiment with normal plasma pool (NPP) (0.6 μg/ml); 179 s in the experiment on normal plasma pool (NPP) (0.8 μg/ml); 198 s with normal plasma pool (NPP) (1.0 μg/ml); 204 s in the experiment on normal plasma pool (NPP) (1.2 μg/ml). Moreover, the Clotting time is 210 s in the experiment on normal plasma pool (NPP) (1.4 μg/ml), 232 s in the experiment with normal plasma pool (NPP) (1.6 μg/ml), 234 s with normal plasma pool (NPP) (1.8 μg/ml) and 240 s in the experiment on normal plasma pool (NPP) (2.0 μg/ml).
For `O=C(NC[C@H]1CN(c2ccc(N3CCOCC3=O)cc2)C(=O)O1)c1ccc(Cl)s1` [rivaroxaban], the “Clotting time with PT” value in the experiment with plasma samples [1] (50 ng) was determined as 12.2 s; in the experiment with plasma samples [1] (200 ng) it was 20.3 s. Further, the “PT clotting time relative to reference range (RR)” value in the experiment on plasma samples [1] (only at higher doses, in the range of 200 ng or more) was “above the RR”.

Source of the values: patent US11846640B2, “Identification of anticoagulants in a sample” (DSM IP Assets B.V., priority 2013, dated 2023).
